Assay results published in publication PMC3039983, “Cloning, Expression, and Characterization of Thermotolerant Manganese Superoxide Dismutase from Bacillus sp. MHS47” (International Journal of Molecular Sciences, 2011).

Target: T1, MnSOD47 (Bacillus sp. MHS47, UniProt E9LK91)
T1 construct: gene sodA
Experiment: xanthine oxidase/hypoxanthine-tetrazolium SOD assay, […] nm
Format: biochemical
Conditions: superoxide generated in situ by xanthine oxidase/hypoxanthine; indirect read-out

T1 sequence (E9LK91 1-203 limits assumed): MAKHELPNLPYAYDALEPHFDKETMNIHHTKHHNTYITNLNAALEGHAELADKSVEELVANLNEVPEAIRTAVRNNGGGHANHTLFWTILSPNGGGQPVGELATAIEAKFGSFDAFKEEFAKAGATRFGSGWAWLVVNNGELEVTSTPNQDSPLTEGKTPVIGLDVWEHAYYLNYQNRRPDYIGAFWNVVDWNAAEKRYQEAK

[O]O [superoxide radical]
xanthine oxidase/hypoxanthine-tetrazolium SOD assay, 450 nm: coupled to a tetrazolium salt to detect the reduction in superoxide radicals
